Patent publication US7285687B2 (priority 2002, dated 2007)

How the values were obtained:
CB2 receptor = target: T1, CB2 receptor (Homo sapiens, UniProt P34972); assay: CB2 binding procedure, displacement of [3H]CP-55,940 from membranes of transfected CHO cells; conditions: for CB1/CB2: ratio of CB1 Ki to CB2 Ki; for Ki: Table 6, read-out: CB2 KI
T1 construct: expressed in transfected cells
Description: Membranes for CB2 binding were obtained from CHO cells. The transfected cell line was maintained in Dublecco's Modified Eagle Medium (Gibco BRL, Grand Island, N.Y.) with 10% fetal clone II (HyClone Laboratories, Inc., Logan, Utah) plus 0.3 to 0.5 mg/ml G418 (to maintain selective pressure) under 5% CO2 at 37% C. Cells were harvested with 1 mM EDTA in phosphate-buffered saline and were centrifuged at 1000×g for 5 min at 4% C. The supernatant was saved and the P1 pellet was resuspended in centrifugation buffer. Homogenization and centrifugation were repeated twice and the combined supernatant fractions were centrifuged at 40,000×g for 30 min at 4% C. The P2 pellet was resuspended in centrifugation buffer 2 (Tris HCl, 50 mM; EDTA, 1 mM; and MgCl2, 3 mM, pH 7.4) to a protein concentration of approximately 2 mg/ml. Protein concentrations were determined by the method of Bradford (1976) using Bio-Rad Protein Assay (Bio-Rad, Richmond, Calif.) and BSA standards (fatty acid free, Sigma Chemical Co., St. Louis, Mo.). The membrane preparation was divided into amounts convenient for binding assays and frozen rapidly in dry ice and stored at −80% C.
Binding was initiated by the addition of 50•g of quickly thawed P2 membranes to test tubes containing [^3H]CP-55,940 (final reaction concentration 0.5 nM), an appropriate concentration of unlabeled CP-55,940 or test drug, and sufficient quantity of assay buffer (50 mM Tris-HCl, 1 mM EDTA, 3 mM MgCl2, 5 mg/ml bovine serum albumin, pH 7.4) to bring the total incubation volume to 0.5 ml. Concentration of [^3H]CP-55,940 in saturation studies ranged from 50 to 10,000 pM. […] CP-55,940 and all cannabinoid analogs were-prepared by suspension in assay buffer from a 1 mg/ml ethanolic stock without evaporation of the ethanol (final concentration of no more than 0.4%). In competition studies, analog concentrations ranged from 0.1 nM to 10•M. After incubation at […] for 1 hr, binding was terminated by the addition of 2 ml of ice-cold wash buffer (50 mM Tris-HCl and 1 mg/ml BSA) and vacuum filtration through pre-treated filters in a 12-well sampling manifold (Millipore, Bedford, Mass.). Reaction vessels were washed once with 2 ml of ice-cold wash buffer. Filters were placed into 7-ml plastic scintillation vials (RPI Corp., Mount Prospect, Ill.) with 4 ml of Budget-Solve (RPI Corp.). After shaking for 30 min, the radioactivity present was determined by liquid scintillation spectrometry. Three reaction vessels were used for each drug concentration in each assay. The results represent the combined data of three independent experiments. All assays were performed in siliconized test tubes, which were prepared by air drying (12 hr) inverted borosilicate tubes after two rinses with a 0.1% solution of AquaSil (Pierce, Rockford, Ill.). The GF/C glass-fiber filters (2.4 cm, Baxter, McGaw Park, Ill.) were pre-treated in a 0.1% solution of pH 7.4 polyethylenimine (Sigma Chemical Co.) for at least 6 hr.
(§1) In addition, multiple linear regression was used to calculate the overall degree of relationship between CB1 binding affinity and potency in the mouse measures for all active cannabinoids. […] Ki values for CB1 and CB2 binding were obtained from Scatchard displacement analysis as determined via EBDA program of the KELL software package (Biosoft, Milltown, N.J.).

CB1 receptor = target: T2, CB1 receptor (Rattus norvegicus, UniProt P20272); assay: CB1 binding procedure, displacement of [3H]CP 55,940 from rat whole-brain P2 membranes; conditions: for Ki: Table 6, read-out: CB1 KI
T2 construct: whole brain was homogenized and centrifuged; from tissue; host or cells: whole brain of male Sprague-Dawley rats, P2 membrane fraction
Description: Male ICR mice (25-32 g), obtained from Harlan (Dublin, Va.), were housed in groups of five. All animals were kept in a temperature-controlled (20-22° C.) environment with a 12-hour light-dark cycle (lights on at 7 a.m.). Separate mice were used for testing each drug dose in the in vivo behavioral procedures. Brain tissue for binding studies was obtained from male Sprague-Dawley rats (150-200 g) purchased from Harlan Laboratories (Dublin, Va.).
The methods used for tissue preparation and binding have been described previously (Compton et al., 1993) and are similar to those described by Devane et al. (1988). All assays, as described briefly below, were performed in triplicate, and the results represent the combined data from three to six individual experiments.
Following decapitation and rapid removal of the brain, whole brain was homogenized and centrifuged. The resulting pellet was termed P1. The supernatant was saved and combined with the two subsequent supernatants obtained from washing of the P1 pellet. The combined supernatant fractions were centrifuged, resulting in the P2 pellet. After further incubation and centrifuging, this pellet was resuspended in assay buffer to a protein concentration of approximately 2 mg/ml. The membrane preparation was quickly frozen in a bath solution of dry ice and 2-methylbutane (Sigma Chemical Co., St. Louis, Mo.), then stored at −80° C. for no more than 2 weeks. Prior to performing a binding assay an aliquot of frozen membrane was rapidly thawed and protein values determined by the method of Bradford (1976).
Binding was initiated by the addition of 150•g of P2 membrane to test tubes containing 1 nM of [^3H] CP 55,940 (79 Ci/mmol) and a sufficient quantity of buffer to bring the total incubation volume to 1 ml. […] Following incubation at 30° C. for 1 hr, binding was terminated by addition of ice cold buffer and vacuum filtration through pretreated filters in a 12-well sampling manifold (Millipore, Bedford, Mass.). After washing, filters were placed into plastic scintillation vials (Packard, Downer Grove, Ill.) and shaken. The quantity of radioactivity present was determined by liquid scintillation spectrometry.
as §1

T2 sequence (P20272 whole entry): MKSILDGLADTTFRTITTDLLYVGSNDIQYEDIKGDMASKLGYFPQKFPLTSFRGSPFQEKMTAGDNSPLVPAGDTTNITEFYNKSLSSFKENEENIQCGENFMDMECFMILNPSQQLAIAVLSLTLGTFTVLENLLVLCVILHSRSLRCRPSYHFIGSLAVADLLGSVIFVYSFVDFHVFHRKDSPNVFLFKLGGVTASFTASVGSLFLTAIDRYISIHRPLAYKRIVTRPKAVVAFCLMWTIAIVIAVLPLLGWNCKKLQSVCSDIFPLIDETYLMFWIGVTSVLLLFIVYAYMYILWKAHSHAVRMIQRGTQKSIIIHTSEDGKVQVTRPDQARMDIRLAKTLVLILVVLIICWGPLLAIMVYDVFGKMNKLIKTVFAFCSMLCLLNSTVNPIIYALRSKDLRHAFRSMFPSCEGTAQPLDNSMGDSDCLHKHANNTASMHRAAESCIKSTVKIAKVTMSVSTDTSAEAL
T1 sequence (P34972 whole entry): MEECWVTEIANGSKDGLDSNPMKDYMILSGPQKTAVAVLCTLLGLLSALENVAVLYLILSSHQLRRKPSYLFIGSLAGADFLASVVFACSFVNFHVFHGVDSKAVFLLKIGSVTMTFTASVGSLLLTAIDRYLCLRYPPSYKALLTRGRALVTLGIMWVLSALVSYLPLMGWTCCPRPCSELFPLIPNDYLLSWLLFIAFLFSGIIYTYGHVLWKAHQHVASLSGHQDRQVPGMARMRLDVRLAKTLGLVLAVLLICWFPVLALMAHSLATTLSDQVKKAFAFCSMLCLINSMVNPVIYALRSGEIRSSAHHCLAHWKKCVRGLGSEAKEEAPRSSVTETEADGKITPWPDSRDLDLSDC

Compound	CB1/CB2 (CB2 receptor)	further results
CCCCCCC(C)(C)c1cc(OC)c(C2(O)CCC(O)CC2)c(OC)c1 (single isomer, unassigned) [O-2116A, 1-[4-(1,1-Dimethyl-heptyl)-2,6-dimethoxy-phenyl]-cyclohexane-1,4-olol (A)]	21	–
CCCCCCC(C)(C)c1cc(OC)c(C2(O)CCCCC2)c(OC)c1 [O-2072, 1-[4-(1,1-Dimethylheptyl)-2,6-dimethoxyphenyl]-cyclohexanol]	55	–
CCCC(C)(C)c1ccc(-c2cc(C)ccc2C(C)C)c(O)c1 [O-1532, 3-1′,1′-Dimethylbutyl-6-(2-isopropyl-5-methyl-phenyl)-phenol]	8	–
CCCCCCC(C)(C)c1cc(O)c([C@H]2CCCC(C)C2)c(O)c1 (stereo in doubt) [O-1826, 2-(3R-Methylcyclohexyl)-5-(1′,1′-dimethylheptyl)-resorcinol]	50	–
CCCCCCC(C)(C)c1cc(O)c(C2=CCCCC2)c(O)c1 [O-1423]	3	–
CCCCCCC(C)(C)c1cc(OC)c(C2CCCC(C)C2)c(OC)c1 (stereo not drawn) [O-1999, 5-(1,1-Dimethyl-heptyl)-1,3-dimethoxy-2-(3-methyl-cyclohexyl)-benzeno]	–	fold reduction in affinity for CB2 receptors (CB2 receptor; compared to O-1657): ~600 fold
CCCCCCC(C)(C)c1cc(O)c(C2CCSCC2)c(O)c1 [O-1425]	13	fold decrease in CB1 affinity (CB1 receptor; compared to O-1422): 14 fold; fold decrease in CB2 affinity (CB2 receptor; compared to O-1422): 8 fold
CCCCCCC(C)(C)c1cc(OC)c(C2(O)CC(=O)CC(C)C2)c(OC)c1 (stereo not drawn) [O-2123, 3-[4-(1,1-Dimethyl-heptyl)-2,6-dimethoxy-phenyl]-3-hydroxy-5-methyl-cyclohexanone]	14	Ki (CB1 receptor): 7330 ± 117 nM
CCCCCCC(C)(C)c1cc(OC)c(C2(O)CCCCCC2)c(OC)c1 [O-2091, 1-[4-(1,1-Dimethylheptyl)-2,6-dimephenyl]-cycloheptan-1-ol]	50	–
CCCCCCC(C)(C)c1cc(O)c(C2CCCC(C)C2)c(O)c1 (single isomer, unassigned) [O-1798B, 2-(3-Methylcyclohexyl)-5-(1′,1′-dimethylheptyl)-resorcinolisomer B]	8	Ki (CB1 receptor): 4.33 ± 0.58 nM
CCCCCCC(C)(C)c1cc(O)c(C2CCC(C)CC2)c(O)c1 (stereo not drawn) [O-1659, 2-(4-Methylcyclohexyl)-5-(1′,1′-dimethylheptyl)-resorcinol]	9	–
CCCCCCC(C)(C)c1cc(OC)c(C2(O)CC(C)CC(O)C2)c(OC)c1 (stereo not drawn) [O-2121]	20	–
CCCCCCC(C)(C)c1cc(O)c(C2CCCCC2)c(O)c1 [O-1422, Cyclohexyl-5-(1′,1′-dimethylheptyl)-resorcinol]	7	–
CCCCCCC(C)(C)c1cc(OC)c(C2=CCC(=O)CC2)c(OC)c1 [O-2114, 4-[4-(1,1-Dimethyl-heptyl)-2,6-dimethoxy-phenyl]-cyclohex-3-enone]	5	–
CCCCCCC(C)(C)c1cc(OC)c(C2(O)CCCC(C)(C)C2)c(OC)c1 (stereo not drawn) [O-2068, 1-[4-(1,1-Dimethylheptyl)-2,6-dimethoxyphenyl]3,3-dimethyl-cyclohexanol]	47	–
CCCCCCC(C)(C)c1cc(O)c(C2CCCC(C)C2)c(O)c1 (single isomer, unassigned; isomer a) [O-1797A, 2-(3-Methylcyclohexyl)-5-(1′,1′-dimethylheptyl-resorcinol isomer A]	12	Ki (CB2 receptor): 0.44 ± 0.03 nM
C=C(C)[C@@H]1CCC(C)=CC1c1ccc(O)cc1O (single isomer, unassigned; (-)) [O-1848, (-)-4-(3-3,4-trans-p-menthadien-(1,8)-yl)-resorcinol]	–	Ki (CB1 receptor): > 10000 nM
COc1cc(C)cc(OC)c1C1(O)CCCCC1 [O-2298, 1-(2,6-Dimethoxy-4-methyl-phenyl)-cyclohexanol]	–	Ki (CB1 receptor): > 10000 nM; Ki (CB2 receptor): > 10000 nM
CCCCCCC(C)(C)c1cc(O)c(C2C3CC4CC(C3)CC2C4)c(O)c1 (stereo not drawn) [O-1660, 2-(2-Adamantanyl)-5-(1′,1′-di-methylheptyl)-resorcinol]	2	Ki (CB1 receptor): 7.5 ± 1.2 nM; Ki (CB2 receptor): 3.16 ± 0.81 nM
CCCCCCC(C)(C)c1cc(OCC)c(C2(O)CCCC(C)C2)c(OCC)c1 (stereo not drawn) [O-2090, 1-[4-(1,1-Dimethylheptyl)-2,6-dietlphenyl]-3-methyl cyclohexane-1-ol]	10	–
CCCCCCC(C)(C)c1cc(OC)c(C2(O)CCC[C@@H](C)C2)c(OC)c1 (stereo in doubt) [compound 2137, 1-[4-(1,1-Dimethyl-heptyl)-2,6-dimethoxy-phenyl]-3-methyl-cyclohexanol]	–	Ki (CB1 receptor): 2670 ± 145 nM; Ki (CB2 receptor): 11 ± 2.18 nM
CCCCCCC(C)(C)c1ccc(-c2cc(CO)ccc2C(C)C)c(O)c1 [O-1601, 3-1′,1′-Dimethylhepyl-6-(2-isopropyl-5-hydroxy-methylphenyl)-phenol]	2	–
CCCCCCC(C)(C)c1cc(O)c(C2CCCC(C)C2)c(O)c1 (mixture of isomers) [O-1657, 2-(3-Methylcyclohexyl)-5-(1′,1′-dimethylheptyl)-resorcinol]	17	–
CCCCCCC(C)(C)c1cc(OC)c(C23CCC(O)CC2O3)c(OC)c1 (stereo not drawn) [O-2122, 6-[4-(1,1-Dimethyl-heptyl)-2,6-dimethoxy-phenyl]-7-oxa-bicyclo[4 1 0]heptan-3-ol]	4	–
CCCCCCC(C)(C)c1cc(O)c(C2CCC(c3ccccc3)CC2)c(O)c1 (stereo not drawn) [O-1663, 2-(4-Phenylcyclohexyl)-5-(1′,1′-dimethylheptyl)-resorcinol]	16	–
CCCC(C)(C)c1cc(O)c(C2CCCC(C)C2)c(O)c1 (stereo not drawn) [O-1890, 2-(3-Methylcyclohexyl)-5-(1′,1′-dimethylbutyl)-resorcinol]	7	–
C=C(C)[C@@H]1CCC(C)=CC1c1c(O)cccc1O (single isomer, unassigned; (-)) [O-1847, (-)-2-(3-3,4-trans-p-menthadien-(1,8)-yl)-resorcinol]	–	Ki (CB1 receptor): > 10000 nM
CCCCCCC(C)(C)c1cc(OC)c(C2(O)CCC3(CC2)OCCO3)c(OC)c1 [O-2092, 8-[4-(1,1-Dimethylheptyl)-2,6-dimephenyl]-1,4-dioxaspiro[4,5]decan-]	36	–
C=C(C)[C@@H]1CCC(C)=CC1c1c(O)c(I)c(C)c(I)c1O (single isomer, unassigned; (-)) [O-1868, (-)-2-(3-3,4-trans-p-menthadien-(1,8)-yl)-1,6-dipdoorcinol]	–	Ki (CB1 receptor): > 10000 nM
CCCCCCC(C)(C)c1cc(O)c(C2CCCCC2C)c(O)c1 (stereo not drawn) [O-1658, 2-(2-Methylcyclohexyl)-5-(1′,1′-dimethylheptyl)-resorcinol]	16	–
